Three compounds from patent US6953786B2, “Compositions comprising plant-derived polyphenolic compounds and inhibitors of reactive oxygen species and methods of using thereof” (The Regents of the University of California, priority 2002, dated 2005) can be followed below.

One test deals with Mia PACA-2 cells. Description: Intracellular ROS (H2O2) by flow cytometry of DCF-labeled cells. The conditions noted are these: Mia PACA-2, 72 hours, serum or IGF-1; trans-resveratrol 100 μM, genistein 100 μM, DPI 15 μM, tiron 10 mM. It counts as cell-based, human. The procedure:
To determine the effect of serum in cancer cells, the following assay was conducted. Mia PACA-2 pancreatic cancer cells were cultured for 72 hours in the absence and presence of serum (15% FBS) or 100 ng/ml insulin growth factor-1 (IGF-1). Dichloroflyorescein diocetate (DCF-DA) was used to label the cells. Intracellular H2O2 was measured by flow cytometry of DCF-labeled cells. Intracellular ROS was measured using oxidation-sensitive cell-permeable fluorescent probe, dichlorofluorescein diacetate (DCF-DA) to measure H2O2. See Royall J A, and Ischiropoulos H. (1993) Arch. Biochem. Biophys. 302:348-355. To measure ROS, cells were collected after incubation, washed with PBS, and incubated for 15 minutes with […] DCF-DA. Samples were analyzed by flow cytometry. The amount of DCF-DA fluorescence correlated with the amount of ROS in the cells To determine the effects of serum, IGF-1, polyphenols and inhibitors of ROS on ROS production in cancer cells, the following assay was conducted. Mia PACA-2 cells were cultured for 72 hours in the presence of serum or IGF-1 with or without antioxidants, intracellular superoxide scavenger tiron (10 mM) or NADPH oxidase inhibitor, diphenylene iodonium (DPI, 15 μM) and trans-resveratrol (100 μM), genistein (100 μM), or a combination of polyphenolic compounds and antioxidants. Intracellular H2O2 was measured by flow cytometry of DCF-labeled cells. Mia PACA-2 cells and BSp73AS cells were cultured in Dulbecco's Modified Eagle's Medium supplemented with 10% heat inactivated FBS, penicillin G (100 U/ml) and streptomycin ([…]) in a humidified atmosphere comprising 5% (v/v) CO2. When the cells were 90% confluent they were detached, washed with alternating centrifugation and resuspension, plated and incubated in the same media with or without FBS or IGF-1 and with or without a given polyphenolic compound and with or without a given ROS inhibitor.

The test system of another test is PARP. Description: PARP proteolysis (Western blot). It counts as cell-based, rat. The conditions noted are these: BSp73AS, 6 hours, 100 μM. The procedure: BSp73AS cells were cultured for 6 hours and Mia PACA-2 cells were cultured for 24 hours in the presence or absence of 100 μM of each rutin, quercetin or trans-resveratrol and with or without 50 μM of each […]. The cells were washed twice with PBS and lysed by incubating for 20 minutes at 4° C. in lysis buffer comprising 0.15 M NaCl, 50 mM Tris (pH 7.2), 1% deoxycholic acid (wt/vol), 1% Triton X-100 (wt/vol), 0.1% […] (wt/vol) and 1 mM PMSF, as well as 5 μg/ml each of protease inhibitors, pepstatin, leupeptin, chymostatin, antipain, and aprotinin. Then the cell lysates were centrifuged for 20 minutes at 15,000 g at 4° C. The supernatants were separated by 4-20% SDS-PAGE for 2 hours at 120 V using precast Tris-glycine gels and a Mini-Cell gel apparatus (Novex, San Diego, Calif.). Separated proteins were electrophoretically transferred to a nitrocellulose membrane for 2 hours at 30 V using a Novex Blot Module (Novex, San Diego, Calif.). Nonspecific binding was blocked by 1 hour incubation of nitrocellulose membranes in 5% (wt/vol) nonfat dry milk in Tris-buffered saline (TBS; pH 7.5). Blots were then incubated overnight at 4° C. with rabbit polyclonal antibody against poly (ADP-ribose) polymerase (PARP) (Santa Cruz Biotechnology, Santa Cruz, Calif.) (1;3,000) in an antibody buffer comprising (1% (wt/vol) non-fat dry milk in TTBS (0.05% vol/vol) Tween-20 in TBS), washed 3 times with TTBS and finally incubated for 1 hour with a peroxidase-labeled secondary antibody in the antibody buffer. Blots were developed for visualization using ECL detection kit. To test for equal protein loading, the blots were stripped and re-probed with an antibody against tubulin. When processing of a protein was measured, a decrease in unprocessed full-length form was measured concomitantly with the increase in the cleaved, active form. The experiment was repeated 3 times with similar results.

The next test relates to caspase-3. Description: Caspase-3 activity, fluorogenic assay with DEVD-AMC. The conditions noted are these: BSp73AS, up to 6 hours, 100 μM, no serum (FIGS. 6B, 6C). It counts as cell-based, rat. As for the experimental part: To determine whether a polyphenolic compound activates caspase-3 activity in a time-dependent manner, the following assay was conducted. BSp73AS cells were cultured for 0, 1, 3, and 6 hours and Mia PACA-2 cells were cultured in the absence of serum or growth factors for 0, 1, 4, 6, and 24 hours in the presence of 100 μM or quercetin, trans-resveratrol, rutin, or control. Caspase-3 activity was measured in cell lysates with a fluorogenic assay using DEVD-AMC as a substrate. The results were normalized to the DEVDase activity in untreated cells.
To determine whether quercetin activates caspase-3 activity in a dose-dependent manner, the following assay was conducted. Cells were cultured for 6 hours in the absence of serum or growth factors in the presence of 0, 10, 20, 50, and 100 μM of quercetin. Caspase-3 activity was measured in cell lysates with a fluorogenic assay using DEVD-AMC as a substrate. The results were normalized to the DEVDase activity in untreated cells.

For another test, the system named is NF-κB. As to the kind of experiment: NF-κB DNA binding activity (EMSA). The settings on record: BSp73AS, 6 hours; polyphenols 100 μM, MG-132 20 μM. It counts as cell-based, rat. As for the experimental part: In order to determine the role of activated NF-κB in the regulation of apoptosis caused by the polyphenolic compound, the following assay was conducted. BSp73AS cells were cultured for 6 hours and Mia PACA-2 cells were cultured in the absence of serum or growth factors for 24 hours in the absence (controls) or presence of rutin, quercetin, trans-resveratrol, or genistein, each at 100 μM and 20 μM proteosome inhibitor MG-132. Nuclear proteins were isolated and analyzed for NF-κB DNA binding activity with electrophoretic mobility shift assay (EMSA). Specifically, aliquots of nuclear extracts with equal amount of protein, about 2 to about 10 μg, were mixed in 20 μl reactions with a buffer comprising 10 mM HEPES (pH 7.6), 50 mM KCl, 0.1 mM EDTA, 1 mM DTT, 10% (vol/vol) glycerol and 3 μg poly[d (I-C)]. After aliquots were equilibrated on ice for 5 minutes, binding reactions were stared by addition of 20-60,000 counts/min (20 fM) of ^32P-labeled DNA probes and allowed to proceed for 25-30 minutes at room temperature or up to 1 hour on ice. The oligonucleotide probe containing the κB binding motif (underlined) was annealed to the complementary oligonucleotide with a 5′-G overhang and end-labeled using Klenow DNA polymerase I. The samples were electrophoresed at room temperature in 0.5×TBE buffer (1×TBE 89 mM Tris base, 89 mM boric acid and 2 mM EDTA) on nondenaturing 4.5% polyacrylamide gel at 200 V. Gels were dried and directly analyzed in the PhosphorImager (Molecular Dynamics, Sunnyvale, Calif.). The experiment was repeated twice.

`O=c1c(-c2ccc(O)cc2)coc2cc(O)cc(O)c12` [genistein]: in the test on Mia PACA-2 cells, the “ROS production (intracellular H2O2, DCF fluorescence)” value is given as “small increase in ROS production”.

On to `O=c1c(O)c(-c2ccc(O)c(O)c2)oc2cc(O)cc(O)c12` [quercetin], for which, in the test on PARP, the PARP cleavage entry is recorded as “cleaved to its activated form”. Also, in the test with caspase-3, the caspase-3 activation result was “caused caspase-3 activation”. Further, the “NF-κB activation (DNA binding)” value in the test on NF-κB is “inhibit NF-κB activation”.

For the compound `Oc1ccc(/C=C/c2cc(O)cc(O)c2)cc1` [trans-resveratrol], in the test on PARP, the PARP cleavage result is listed as “cleaved to its activated form”. The caspase-3 activation result in the test with caspase-3 was “caused caspase-3 activation”. The “NF-κB activation (DNA binding)” value in the test with NF-κB is recorded as “inhibit NF-κB activation”. Besides, the “ROS production (intracellular H2O2, DCF fluorescence)” value with Mia PACA-2 cells is “small increase in ROS production”.
